The results in this text go back to US20230017532A1 (Hoffmann-La Roche Inc., priority 2018, published 2023).

Where a name gives a salt, the structure may show the parent alone. Read-outs that look alike come from different tables or passages of the source.

This assay relates to Acinetobacter baumannii ATCC17978. The assay is described as follows: Antimicrobial susceptibility testing: 90% growth inhibitory concentration (IC90) determination, Iso-Sensitest broth, OD 600 nm. It counts as cell-based. As to conditions: read-out: ATCC 17978 IC90. The method, then: Antimicrobial Susceptibility Testing:
90% Growth Inhibitory Concentration (IC90) Determination
The in vitro antimicrobial activity of the compounds was determined according to the following procedure:
The assay used a 10-points Iso-Sensitest broth medium to measure quantitatively the in vitro activity of the compounds against Acinetobacter baumannii ATCC17978 and Acinetobacter baumannii ATCC17961.
Stock compounds in DMSO were serially twofold diluted (e.g. range from 50 to 0.097 μM final concentration) in 384 wells microtiter plates and inoculated with 49 μl the bacterial suspension in Iso-Sensitest medium to have a final cell concentration of ˜5×10^(5) CFU/ml in a final volume/well of 50 ul/well. Microtiter plates were incubated at 35±2° C.
Bacterial cell growth was determined with the measurement of optical density at λ=600 nm each 20 minutes over a time course of 16 h. Growth inhibition was calculated during the logarithmic growth of the bacterial cells with determination of the concentration inhibiting 50% (IC50) and 90% (IC90) of the growth.
Table 1 provides the 90% growth inhibitory concentrations (IC90) in micromoles per liter of the compounds of present invention obtained against the strain Acinetobacter baumannii ATCC17978 and Acinetobacter baumannii ATCC17961.

[1] abbreviates: Acinetobacter baumannii, ATCC17978, 16 h, 90% growth inhibitory concentration, Acinetobacter baumannii ATCC17978, Iso-Sensitest broth, OD 600 nm over 16 h.
Where [2] appears, read: 90% growth inhibitory concentration, Acinetobacter baumannii ATCC17978, Iso-Sensitest broth, OD 600 nm over 16 h.
Setting [3] is: Acinetobacter baumannii, ATCC17978, 16 h.

As a reminder, the IC90 is the concentration at which the effect reaches the 90% level. With `CCc1cc(Nc2nccn3c(-c4ccc(OC)c(F)c4F)cnc23)ccc1C(=O)NCCCCCNCC(=O)O` [Example 50, (5-(4-((3-(2,3-difluoro-4-methoxyphenyl)imidazo[1,2-a]pyrazin-8-yl)amino)-2-ethylbenzamido)pentyl)glycine hydrochloride], the IC90 under setting [1] came to 0.19 µM.

For the compound `CCc1cc(Nc2nccn3c(-c4ccc(OC(F)F)c(F)c4F)cnc23)ccc1C(=O)NCCOCCN(C)CC(=O)O` [Example 51, N-(2-(2-(4-((3-(4-(Difluoromethoxy)-2,3-difluorophenyl)imidazo[1,2-a]pyrazin-8-yl)amino)-2-ethylbenzamido)ethoxy)ethyl)-N-methylglycine trifluoroacetate], the IC90 under setting [1] was 0.3 µM. In the case of `CCc1cc(Nc2nccn3c(-c4ccc(OC)c(F)c4F)cnc23)ccc1C(=O)NCCOCCN(C)CC(=O)O` [Example 52, N-(2-(2-(4-((3-(2,3-difluoro-4-methoxyphenyl)imidazo[1,2-a]pyrazin-8-yl)amino)-2-ethylbenzamido)ethoxy)ethyl)-N-methylglycine hydrochloride], the IC90 under setting [1] came to 0.32 µM.

With `CCc1cc(Nc2nccn3c(-c4ccc(OCC#N)c(F)c4F)cnc23)ccc1C(=O)NCCOCCN` [Example 53, N-(2-(2-aminoethoxy)ethyl)-4-((3-(4-(cyanomethoxy)-2,3-difluorophenyl)imidazo[1,2-a]pyrazin-8-yl)amino)-2-ethylbenzamide], the IC90 under setting [2] stood at 0.13 µM. Take `CCc1cc(Nc2nccn3c(-c4c(F)cc(OC)cc4F)cnc23)ccc1C(=O)NCCOCCN` [Example 54, N-[2-(2-aminoethoxy)ethyl]-4-[[3-(2,6-difluoro-4-methoxyphenyl)imidazo[1,2-a]pyrazin-8-yl]amino]-2-ethylbenzamide hydrochloride]: the IC90 under setting [3] turned out to be 0.32 µM. On the same count and under the same terms, to `CCc1cc(Nc2nccn3c(-c4ccc(OC)cc4N)cnc23)ccc1C(=O)NCCOCCN` [Example 57, 4-((3-(2-amino-4-methoxyphenyl)imidazo[1,2-a]pyrazin-8-yl)amino)-N-(2-(2-aminoethoxy)ethyl)-2-ethylbenzamide hydrochloride] belongs 0.65 µM; to `COc1ccc(-c2cnc3c(Nc4cc(C)c(C(=O)NCCOCCN)c(F)c4)nccn23)c(F)c1F` [Example 58, N-(2-(2-Aminoethoxy)ethyl)-4-((3-(2,3-difluoro-4-methoxyphenyl)imidazo[1,2-a]pyrazin-8-yl)amino)-2-fluoro-6-methylbenzamide formate], 0.051 µM. Take `COc1ccc(-c2cnc3c(Nc4cc(F)c(C(=O)NCCOCCN)c(F)c4)nccn23)c(F)c1F` [Example 59, N-(2-(2-aminoethoxy)ethyl)-4-((3-(2,3-difluoro-4-methoxy-phenyl)imidazo[1,2-a]pyrazin-8-yl)amino)-2,6-difluoro-benzamide]: the IC90 under setting [1] is 0.13 µM. Consider `COc1ccc(-c2cnc3c(Nc4cc(F)c(C(=O)NCCOCCN)c(Cl)c4)nccn23)c(F)c1F` [Example 60, dihydrochloride], for which the IC90 under setting [3] amounted to 0.091 µM. For the compound `CCc1cc(Nc2nccn3c(-c4ccc(OC)c(F)c4F)cnc23)ccc1C(=O)NCCNCCN` [Example 64, N-(2-((2-Aminoethyl)amino)ethyl)-4-((3-(2,3-difluoro-4-methoxyphenyl)imidazo[1,2-a]pyrazin-8-yl)amino)-2-ethylbenzamide], the IC90 under setting [2] was 0.11 µM. With `CCc1cc(Nc2nccn3c(-c4ccc(OC)c(F)c4F)cnc23)ccc1C(=O)NCCOCCOCCN` [Example 65, N-(2-(2-(2-Aminoethoxy)ethoxy)ethyl)-4-((3-(2,3-difluoro-4-methoxyphenyl)imidazo[1,2-a]pyrazin-8-yl)amino)-2-ethylbenzamide dihydrochloride], the IC90 under setting [3] came to 0.072 µM. Regarding `CC#CCOc1ccc(-c2cnc3c(Nc4ccc(C(=O)NCCOCCN)c(C)c4)nccn23)cc1` [Example 67, N-[2-(2-aminoethoxy)ethyl]-4-[[3-(4-but-2-ynoxyphenyl)imidazo[1,2-a]pyrazin-8-yl]amino]-2-methyl-benzamide; 2,2,2-trifluoroacetic acid], the IC90 under setting [3] worked out at 0.23 µM. The same measure, in the same setting: the same measure for `Cc1cc(Nc2nccn3c(-c4ccc(OCC#N)c(F)c4)cnc23)ccc1C(=O)NCCOCCN` [Example 68, N-[2-(2-aminoethoxy)ethyl]-4-[[3-[4-(cyanomethoxy)-3-fluoro-phenyl]imidazo[1,2-a]pyrazin-8-yl]amino]-2-methyl-benzamide; formic acid]: 0.22 µM. With `C#CCOc1ccc(-c2cnc3c(Nc4ccc(C(=O)NCCOCCN)c(CC)c4)nccn23)c(F)c1F` [Example 69, N-(2-(2-aminoethoxy)ethyl)-4-((3-(2,3-difluoro-4-(prop-2-yn-1-yloxy)phenyl)imidazo[1,2-a]pyrazin-8-yl)amino)-2-ethylbenzamide], under setting [1], the IC90 is 0.046 µM. In the case of `CCc1cc(Nc2nccn3c(-c4ccc(OC)c(F)c4F)cnc23)ccc1C(=O)NCCOCCNCC(=O)O` [Example 70, 2-[2-[2-[[4-[[3-(2,3-difluoro-4-methoxy-phenyl)imidazo[1,2-a]pyrazin-8-yl]amino]-2-ethyl-benzoyl]amino]ethoxy]ethylamino]acetic acid; formic acid], the IC90 under setting [3] stood at 0.49 µM. The same measure, in the same setting: to `CCc1cc(Nc2nccn3c(-c4ccc(OC)c(F)c4F)cnc23)ccc1C(=O)NCCOC(C)(C)CN` [Example 71, N-[2-(2-amino-1,1-dimethyl-ethoxy)ethyl]-4-[[3-(2,3-difluoro-4-methoxy-phenyl)imidazo[1,2-a]pyrazin-8-yl]amino]-2-ethyl-benzamide; formic acid] belongs 0.028 µM. Consider `C#CCOc1ccc(-c2cnc3c(Nc4ccc(C(=O)NCCCNCCO)c(CC)c4)nccn23)c(F)c1F` [Example 73, 4-[[3-(2,3-difluoro-4-prop-2-ynoxy-phenyl)imidazo[1,2-a]pyrazin-8-yl]amino]-2-ethyl-N-[3-(2-hydroxyethylamino)propyl]benzamide], for which, under setting [1], the IC90 worked out at 0.17 µM. As to `COc1ccc(-c2cnc3c(Nc4ccc(C(=O)NCCOCCN)c(CCF)c4)nccn23)c(F)c1F` [Example 74, N-[2-(2-aminoethoxy)ethyl]-4-[[3-(2,3-difluoro-4-methoxy-phenyl)imidazo[1,2-a]pyrazin-8-yl]amino]-2-(2-fluoroethyl)benzamide], the IC90 under setting [1] was found to be 0.046 µM. `COc1ccc(-c2cnc3c(Nc4ccc(C(=O)NCCOCCN)c(CC(F)F)c4)nccn23)c(F)c1F` [Example 75, N-[2-(2-aminoethoxy)ethyl]-2-(2,2-difluoroethyl)-4-[[3-(2,3-difluoro-4-methoxy-phenyl)imidazo[1,2-a]pyrazin-8-yl]amino]benzamide; formic acid]: under setting [3], the IC90 came to 0.16 µM. As for `COc1ccc(-c2cnc3c(Nc4ccc(C(=O)NCCOCCN5CCOC5=O)c(C)c4)nccn23)cc1` [Example 76, 4-[[3-(4-methoxyphenyl)imidazo[1,2-a]pyrazin-8-yl]amino]-2-methyl-N-[2-[2-(2-oxo-1,3-oxazolidin-3-yl)ethoxy]ethyl] benzamide], the 90% effect concentration (IC90) under setting [1] stood at 0.72 µM. Regarding `COc1ccc(-c2cnc3c(Nc4ccc(C(=O)NCCOCCN)c(C)c4)nccn23)cc1` [Example 77], the IC90 under setting [2] turned out to be 0.23 µM. For `Cc1cc(Nc2nccn3c(-c4ccc(OC(F)F)cc4)cnc23)ccc1C(=O)NCCOCCNC(=O)CCC(=O)O` [Example 78, 4-[2-[2-[[4-[[3-[4-(difluoromethoxy)phenyl]imidazo [1,2-a]pyrazin-8-yl]amino]-2-methylbenzoyl]amino]ethoxy]ethylamino]-4-oxobutanoic acid], the IC90 under setting [1] was found to be 1.2 µM.
